The values below come from article PMC11231610, “Fatty acid binding to the human transport proteins FABP3, FABP4, and FABP5 from a Ligand’s perspective” (The Journal of Biological Chemistry, 2024).

Assay [1] has as its target FABPs. The arrangement: method as in PMID 11461829. As to conditions: moderate to high binding affinities of FABPs, ref [2]; cited from earlier work.
The target in assay [2] is T1, FABP5 (Homo sapiens, UniProt Q01469).
T1 construct: purchased Sigma Aldrich
Description: MST binding of fluorescent fatty acids to FABP5. How it is done: (§1) FABPs are known to bind more hydrophobic ligands with higher affinity ([1]).
(§2) Microscale thermophoresis (MST) experiments were carried out on a Monolith NT.115 MST device (NanoTemper Technologies GmbH). […] […] In order to minimize the effect of protein aggregation, 0.05 Vol-% of Tween 20 (NanoTemper Technologies GmbH) were added to the HEPES/NaCl buffer solution. Samples were prepared in low-binding Eppendorf tubes. The influence of photobleaching on the quantum yield was reduced by using freshly diluted fluorophore solutions and storing the samples under the exclusion of light during the incubation time of 10 min. The samples were loaded into premium capillaries (NanoTemper Technologies GmbH). The coated capillary surface is designed to avoid the adhesion of molecules. Initially, repeated pre-tests without protein but with different fluorophore concentrations were carried out. This was done to find the optimum concentration and excitation power and to check the fluorescence activity of the fluorophores. The fluorescence intensity had to be in the range of 300 to 600 counts, with preferably smooth MST traces. For binding affinity measurements, the concentration of the fluorescent fatty acid was held constant at 80 nM, while the non-labeled FABPs were used at variable concentrations in a dilution series. The power of the IR laser was held constant at a medium set for all measurements, generating a constant temperature gradient. The measurements were performed as duplicates, using the software MO. Control (version 1.6) and afterward analyzed with the software MO. Affinity Analysis (version 2.3) (NanoTemper Technologies GmbH). The mean fluorescence intensities at the start time were divided by the values at the end time of the MST traces and normalized, obtaining the MST signal Fnorm. For all analyses, the end time was manually set to 1.5 s after the start of the heating process. Fnorm was normalized for the amplitude and baseline corrected to obtain the bound fraction.

The target in assay [3] is T2, FABP3 (Homo sapiens, UniProt P05413).
T2 construct: purchased Sigma Aldrich
T2 sequence (P05413 whole entry): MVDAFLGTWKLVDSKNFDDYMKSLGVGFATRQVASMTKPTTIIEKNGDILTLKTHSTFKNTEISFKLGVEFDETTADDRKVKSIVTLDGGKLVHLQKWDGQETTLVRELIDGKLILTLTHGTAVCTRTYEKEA
The assay can be described thus: MST binding of fluorescent fatty acids to FABP3. How it is done:
as §1, §2

The target in assay [4] is T3, FABP4 (Homo sapiens, UniProt P15090).
T3 construct: purchased Sigma Aldrich
T3 sequence (P15090 whole entry): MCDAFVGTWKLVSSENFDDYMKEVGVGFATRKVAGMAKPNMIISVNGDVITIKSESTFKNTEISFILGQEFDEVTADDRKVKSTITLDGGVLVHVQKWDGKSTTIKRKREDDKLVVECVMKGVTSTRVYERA
Description: MST binding of fluorescent fatty acids to FABP4. How it is done: as §1, §2

[5] abbreviates: 80 nM rhodamine-PA, HEPES/NaCl pH 7.5 with 0.05 Vol-% Tween 20.

T1 sequence (Q01469 whole entry): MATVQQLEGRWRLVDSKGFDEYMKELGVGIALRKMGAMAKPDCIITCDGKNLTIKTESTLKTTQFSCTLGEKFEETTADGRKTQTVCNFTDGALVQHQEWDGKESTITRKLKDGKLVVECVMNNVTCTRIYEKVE

`CCCCCCCC/C=C\CCCCCCCC(=O)O` [oleic acid]: in assay [1], the Kd (in general, the equilibrium constant for the complex coming apart) is 440 to 1560 nM.
`CCN(CC)c1ccc2c(-c3ccc(S(=O)(=O)NCCCCCCCCCCCCCCCC(=O)O)cc3S(=O)(=O)[O-])c3ccc(=[N+](CC)CC)cc-3oc2c1` [rhodamine-PA, [16-N-(lissamine rhodamine ß sulfonyl)amino] palmitic acid]: the lnKA in assay [2] came to 11.7 ± 0.08; in assay [3], 12.56 ± 0.11; in assay [4], 11.46 ± 0.18. For the same compound, the Kd in assay [2] (setting [5]) was 8.3 ± 0.7 µM; in assay [3] (setting [5]), 3.5 ± 0.4 µM; in assay [4] (80 nM rhodamine-PA, FABP4 handled in water), 10.5 ± 2.1 µM. The “ΔGm,A (molar Gibbs energy of association)” value in assay [2] (at 22 °C, van't Hoff equation) was -28.7 ± 0.2 kJ/mol; in assay [3] (at 22 °C, van't Hoff equation), -30.8 ± 0.27 kJ/mol; in assay [4] (at 22 °C, van't Hoff equation), -28.1 ± 0.44 kJ/mol.
